Results published in PMC12346966, “Targeting the Cell Wall Salvage Pathway: Dual-Enzyme Inhibition of AmgK and MurU as a Strategy Against Antibiotic Resistance” (International Journal of Molecular Sciences, 2025).
pIC50: −log10 of the molar value.

Columns and labels:
PaMurU [1] = target: T1, PaMurU (Pseudomonas aeruginosa, UniProt Q9I5U0); test: malachite green dual-enzyme assay IC50; target assigned by ESI-MS; type: biochemical
T1 construct: gene murU

PaMurU [2] = target: T1, PaMurU; test: SUPR-DSF thermal shift (no Kd); nucleotide preference in enzyme assay; type: binding
PaMurU [3] = target: T1, PaMurU; test: malachite green dual-enzyme assay IC50; target assigned by ESI-MS; SUPR-DSF shift +[…] °C; type: biochemical

T1 sequence (Q9I5U0 whole entry): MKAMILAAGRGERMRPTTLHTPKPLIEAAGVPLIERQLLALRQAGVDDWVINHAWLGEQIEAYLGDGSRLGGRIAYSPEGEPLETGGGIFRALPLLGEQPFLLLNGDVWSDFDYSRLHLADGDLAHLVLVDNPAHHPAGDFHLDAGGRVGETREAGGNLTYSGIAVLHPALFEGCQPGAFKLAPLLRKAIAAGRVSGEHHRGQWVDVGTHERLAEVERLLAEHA

`CCCCCCCCCCCCCCCC[N+](C)(C)C` [compound 1, CTAB] was tested, and the pIC50 (PaMurU [1]) was 5.08.
Work on `O=c1ccn([C@@H]2O[C@H](COP(=O)(O)OP(=O)(O)OP(=O)(O)O)[C@@H](O)[C@H]2O)c(=O)[nH]1` [UTP] yielded a ΔTm (PaMurU [2]) of 3.86 °C.
Work on `Nc1c(/N=N/c2ccc(-c3ccc(/N=N/c4cc(S(=O)(=O)O)c5ccccc5c4N)cc3)cc2)cc(S(=O)(=O)O)c2ccccc12` [compound 2, 4-amino-3-[[4-[4-[(1-amino-4-sulfonatonaphthalen-2-yl)diazenyl]phenyl]phenyl]diazenyl] naphthalene-1-sulfonate] yielded a pIC50 (PaMurU [3]) of 4.85.
